Data: patent US5340929A, “Trisazo dye and dye composition containing the same” (Orient Chemical Industries, Ltd., priority 1992, dated 1994)
Where two headings read alike, the source gives them in different places.

Columns and labels:
[1] = Water resistance of writing (drawdown paper dipped in tap water, reflection density); format: physicochemical; conditions: drawndown paper, 3% dye solution, air-dried one day
Description: Light resistance: The resulting dye was dissolved in a 5% aqueous diethylene glycol solution to obtain a 3% dye solution. […] A degree of discoloration was compared with that before testing.
Water resistance: The drawndown paper was air-dried for one day and dipped in tap water.
A: Reflection density is more than 70% of that before testing.
B: Reflection density is 50 to 70% of that before testing.
C: Reflection density is less than 50% that before testing.

[2] = test system: strains TA98; format: cell-based
Description: Further, the trisazo dye of the present invention is a nontoxic trisazo dye which gives negative results in a back mutation test using an organism, which is generally known as a test method for evaluating toxicity, i.e. AMES test (mutation test).
Evaluation method of Ames test
Regarding various specimen solutions respectively containing a trisazo dyes obtained in Examples 1 to 8 of the present invention and dyes of Comparative Examples 1 to 3, the number of mutant colonies was determined using strains TA98. 2. When the ratio is less than 2, it is "negative" and, when the ratio is more than 2, it is "positive", and the results are shown in Table. 1.

[3] = Hue of dye / writing; format: physicochemical
[4] = test system: strains TA98; conditions: prior art statement, background; cited from earlier work

| Structure (SMILES) | Writing evaluation: Water resistance [1] | Ames test: ratio of the number of colonies to control ([2]; TA98, S-9 (+), 20 μg/plate) | Ames test: ratio of the number of colonies to control ([2]; TA98, S-9 (+), 78 μg/plate) | Ames test: ratio of the number of colonies to control ([2]; TA98, S-9 (+), 313 μg/plate) | Ames test: ratio of the number of colonies to control ([2]; TA98, S-9 (+), 1250 μg/plate) | Ames test: ratio of the number of colonies to control ([2]; TA98, S-9 (+), 5000 μg/plate) | Ames test: ratio of the number of colonies to control ([2]; TA98, S-9 (-), 20 μg/plate) | Ames test: ratio of the number of colonies to control ([2]; TA98, S-9 (-), 78 μg/plate) | Ames test: ratio of the number of colonies to control ([2]; TA98, S-9 (-), 313 μg/plate) | Ames test: ratio of the number of colonies to control ([2]; TA98, S-9 (-), 1250 μg/plate) | Ames test: ratio of the number of colonies to control ([2]; TA98, S-9 (-), 5000 μg/plate) | Hue [3] | AMES evaluation ([2]; TA98, positive/negative from ratio of colonies to control) | Hue ([3]; listed as Comparative Example 1) | Ames test result [4] |
| --- | --- | --- | --- | --- | --- | --- | --- | --- | --- | --- | --- | --- | --- | --- | --- |
| Nc1ccc(N=Nc2ccc(N(c3ccccc3)c3ccc(N=Nc4c(S(=O)(=O)O)cc5cc(S(=O)(=O)O)c(N=Nc6ccccc6)c(O)c5c4N)cc3)cc2)c(O)c1 [Ex. 1] | A (Reflection density is more than 70% of that before testing.) | 1.18 | 1.17 | 1.32 | 0.41 | 0.29 | 0.95 | 0.82 | 0.82 | 0.95 | 0.77 | Reddish |  |  |  |
| Cc1ccc(N(c2ccc(N=Nc3ccc(O)cc3O)cc2)c2ccc(N=Nc3c(S(=O)(=O)O)cc4cc(S(=O)(=O)O)c(N=Nc5ccccc5)c(O)c4c3N)cc2)cc1 [Ex. 2] | B (Reflection density is 50 to 70% of that before testing.) | 1.17 | 1.09 | 1.02 | 0.83 | 0.87 | 1.19 | 1.32 | 1.04 | 1.06 | 1.18 | Reddish |  |  |  |
| CCC(C)c1ccc(N=Nc2c(S(=O)(=O)O)cc3cc(S(=O)(=O)O)c(N=Nc4ccc(N(c5ccccc5)c5ccc(N=Nc6ccc(O)cc6O)cc5)cc4)c(N)c3c2O)cc1 (stereo not drawn) [Ex. 3] | A (Reflection density is more than 70% of that before testing.) | 1.30 | 1.07 | 1.17 | 1.67 | 0.77 | 0.87 | 0.83 | 0.78 | 0.87 | 0.70 | Reddish |  |  |  |
| Nc1ccc(N=Nc2ccc(N(c3ccccc3)c3ccc(N=Nc4c(S(=O)(=O)O)cc5cc(S(=O)(=O)O)c(N=Nc6ccc(S(=O)(=O)O)cc6)c(O)c5c4N)cc3)cc2)c(O)c1 [Ex. 4] | A (Reflection density is more than 70% of that before testing.) | 1.23 | 1.22 | 1.21 | 1.51 | 1.17 | 1.06 | 1.02 | 1.05 | 0.99 | 1.02 | Reddish |  |  |  |
| CN(c1ccc(N=Nc2ccc(N)cc2O)cc1)c1ccc(N=Nc2c(S(=O)(=O)O)cc3cc(S(=O)(=O)O)c(N=Nc4ccccc4)c(O)c3c2N)cc1 [Ex. 5] | B (Reflection density is 50 to 70% of that before testing.) | 1.60 | 1.56 | 1.44 | 1.72 | 1.20 | 1.00 | 0.78 | 0.87 | 1.39 | 1.65 | Reddish |  |  |  |
| CCCCN(c1ccc(N=Nc2ccc(N)cc2O)cc1)c1ccc(N=Nc2c(S(=O)(=O)O)cc3cc(S(=O)(=O)O)c(N=Nc4ccc(C(C)CC)cc4)c(O)c3c2N)cc1 (stereo not drawn) [Ex. 6] | A (Reflection density is more than 70% of that before testing.) | 1.09 | 1.04 | 1.28 | 1.48 | 1.33 | 0.82 | 1.13 | 1.11 | 1.32 | 1.60 | Reddish |  |  |  |
| CCCCCCN(c1ccc(N=Nc2ccc(N)cc2O)cc1)c1ccc(N=Nc2c(S(=O)(=O)O)cc3cc(S(=O)(=O)O)c(N=Nc4ccccc4C)c(O)c3c2N)cc1 [Ex. 7] | A (Reflection density is more than 70% of that before testing.) | 1.20 | 1.15 | 0.82 | 0.44 | 0.53 | 1.28 | 1.50 | 1.06 | 1.33 | 0.94 | Reddish |  |  |  |
| CCCCCCCCN(c1ccc(N=Nc2ccc(N)cc2O)cc1)c1ccc(N=Nc2c(S(=O)(=O)O)cc3cc(S(=O)(=O)O)c(N=Nc4ccc(S(=O)(=O)O)cc4)c(O)c3c2N)cc1 [Ex. 8] | B (Reflection density is 50 to 70% of that before testing.) | 1.25 | 1.22 | 1.16 | 0.88 | 0.91 | 0.98 | 0.94 | 0.91 | 0.93 | 1.02 | Reddish |  |  |  |
| Nc1ccc(N=Nc2ccc(Nc3ccc(N=Nc4c(S(=O)(=O)O)cc5cc(S(=O)(=O)O)c(N=Nc6ccccc6)c(O)c5c4N)cc3S(=O)(=O)O)cc2)c(O)c1 [compound 1, C.I. Direct Black 168, reference compound] | C (Reflection density is less than 50% that before testing.) | 0.83 | 0.88 | 1.08 | 1.38 | 3.38 | 0.82 | 1.13 | 0.88 | 0.88 | 0.88 | Reddish | False positive | Reddish black | false positive or positive |
